Assay results reported in article PMC5413024, “Mechanistic insights into the more potent effect of KP-54 compared to KP-10 in vivo” (PLoS ONE, 2017).
In brackets after ≈: the same amount, converted by molar mass. Ends that are not written are not given here.

Tests used:
[1] = tested on: LH secretion; assay: S1 Fig: plasma LH after i.p. injection of penetratin-extended Kp10; type: in vivo, mouse; conditions: single 100 μl i.p. injection, blood at 10 min and 2 hrs, n = 2 per treatment
Method: Supplementary file pone.0176821.s001.tif: S1 Fig Kisspeptin-penetratin treatment. This experiment aimed at facilitating Kp10 to cross the blood-brain-barrier by adding a penetratin extension to the […] end of Kp10, thereby putatively provided with higher permeability. Two penetratin variants were tested: the pen(ala2) residue has a lower protein transduction domain activity than pen-Kp10. […] Each animal received a single 100 μl i.p. injection of either PBS, Kp10, Kp54, Pen-Kp10 or Pen(ala2)-Kp10. Blood samples were collected at 10 min (from tail vein) and 2 hrs (from vena cava upon sacrifice) time points after administration. […] (TIF) Click here for additional data file.

[2] = from the product data sheets; ref product data sheets (manufacturer); cited from earlier work
Method: KP-10 [human Metastin (45–54) amide, M-2816] was purchased from Sigma-Aldrich. KP-10 consists of the C-terminal 10-amino acids of KP-54. Human KP-54 was synthesized by the Advanced Biotechnology Centre, Imperial College, London, UK. BSA-FITC was purchased from Sigma (A9771). From the product data sheets, the solubility of KP-10 and KP-54 in water is 1mg/ml. We prepared stock solutions in sterile PBS at 100 μM, which is almost ten times lower than the solubility limit set by the manufacturer. The 100 μM stock solution was diluted in sterile PBS and 100 μl of the working solution was injected to ...

[3] = Study 4: pharmacokinetics of plasma kisspeptin after i.p. injection (radioimmunoassay); type: in vivo, mouse; conditions: male mice
Method: Male mice received a single i.p. injection of 1 nmol KP-10 or 1 nmol KP-54. 100 μl of blood was collected from the lateral tail vein from groups of mice (n = 4) for each time point (0, 1 min, 2 min, 5 min, 10 min, 30 min, 60 min and 120 min). Terminal bleeds were collected from the vena cava. Blood was mixed with 5 μl EDTA, centrifuged at 10,000 x g for 10 min at 4°C to obtain the plasma fraction, and stored at -20°C until assayed. Kisspeptin concentrations were measured using an established in house competitive radioimmunoassay (RIA, [5]. Briefly, this RIA uses a sheep polyclonal antibody (GQ2), raised against human KP-54, which cross-reacts with human KP-54, KP-14 and KP-10.
3–5 month old wild-type (129S6/SvEv) male mice were used in this study. The mice were housed in open cages on a 12 hour light cycle (lights on at 0700 h) at a controlled temperature (22°C), and were provided with food and water ad libitum. All experiments were performed under the authority of a United Kingdom Home Office Project License and were approved by a Cambridge Animal Ethics Committee.

[4] = men / humans; ref [5], [30] (KP-10), ref [5] (KP-54); cited from earlier work
Description: It should be noted, however that the RIA used to measure KP-54 may also detect shorter breakdown products of this protein that might be biologically inert. It is likely that the lack of GnRH neuronal activation and sustained LH release by KP-10 is mainly due to its instability. It is noteworthy that we failed ...

Row | peak (maximum) plasma kisspeptin level ([3]; 1 nmol i.p., RIA (GQ2 antibody), mean ± SEM, n = 4 per time point) | plasma kisspeptin level by 10 min post-injection ([3]; 1 nmol i.p., RIA, n = 4) | time of peak plasma kisspeptin level post-injection ([3]; 1 nmol i.p., RIA, n = 4 per time point) | plasma half-life ([3]; 1 nmol i.p., estimated from RIA plasma levels, RIA recognises all forms of Kp, may include breakdown products) | fraction of the injected peptide entering the bloodstream after intraperitoneal injection ([3]; 1 nmol i.p., assuming a total blood volume of approximately 5 ml) | peak level in the bloodstream, times lower than that of KP-54 ([3]; equimolar 1 nmole i.p., 250 pmol/L vs 12000 pmol/L) | Compound | effect of penetratin extension on Kp10-induced LH secretion [1] | solubility in water [2] | half-life in the blood stream in humans [4]
1 |  |  |  |  |  |  | NRRMKWKKYYNWNSFGLRF-NH2 [Pen-Kp10] | does not improve the Kp10-induced LH secretion |  | 
2 | 248 ± 9 pmol/L | undetectable | 2 min | about 4 min | around 0.13% | ~50 times | CC(C)C[C@H](NC(=O)CNC(=O)[C@H](Cc1ccccc1)NC(=O)[C@H](CO)NC(=O)[C@H](CC(N)=O)NC(=O)[C@H](Cc1c[nH]c2ccccc12)NC(=O)[C@H](CC(N)=O)NC(=O)[C@@H](N)Cc1ccc(O)cc1)C(=O)N[C@@H](CCCNC(=N)N)C(=O)N[C@@H](Cc1ccccc1)C(N)=O [KP-10, human Metastin (45–54) amide] |  | 1000 µg/mL (≈ 768 µM) | 3.8 min
3 |  |  |  |  |  |  | NRRMAWAKYYNWNSFGLRF-NH2 [Pen(ala2)-Kp10] | does not improve the Kp10-induced LH secretion |  | 
